# Tests used:
# [1] = target: T1, MET kinase (Homo sapiens, UniProt P08581); assay: MET kinase enzymatic HTRF assay; assay type: biochemical
# T1 construct: purchased Millipore
# Method: HTRF assay detects the phosphorylation level of a biotinylated tyrosine kinase substrate peptide (TK substrate) by MET kinase. The HTRF® KinEASE™ TK kit and MET kinase were purchased from Cisbio and Millipore, respectively. The optimal conditions for enzyme, substrate, ATP concentrations, and enzymatic reaction times were set.
# In order to prepare the test compounds, after dissolving in DMSO, they were diluted in the reaction buffer containing 50 mM HEPES pH 7.0, 0.1 mM sodium orthovanadate, 0.01% BSA, 0.02% NaN3, 10 mM MgCl2, 5 mM MnCl2, 2 mM DTT. […] Finally, the Time Resolved-Fluorescence Resonance Energy Transfer (TR-FRET) signal was measured after an hour of incubation at room temperature.
# The following equations were used to determine the inhibition rate (%): Ratio665/620=Emission665 nm/Emission620nm ΔR=Ratio Sample665/620-Ratio Background665/620∗100/Ratio Background665/620 Inhibition%=ΔRControl-ΔRSample∗100/ΔRControl
# Background samples contained all reagents except for the enzyme. Control wells contained the same amount of DMSO contained in the sample.
# [2] = tested on: MET phosphorylation in AsPC-1 cells; assay: MET phosphorylation by western blot analysis; assay type: cell-based, human; settings: 10 and 25 μM, 3 h
# Method: The effect of synthetic compounds on MET phosphorylation in AsPC-1 cells was investigated by western blot analysis. At first, the AsPC-1 cells were seeded in 6-well plates at a density of 250,000 cells/ml and incubated at 37 °C for 24 h. The cultured cells were then treated with the synthetic compounds at different concentrations for 3 h. Then, the cells were harvested via addition of ice-cold RIPA lysis buffer (20 mM Tris base, 150 mM NaCl, 1% Np40, 1 mM EDTA, […] and 0.1% SDS, pH 8.0) containing […] (PMSF; SigmaAldrich), 10 mM Na4O7P2 and 2 mM Na3VO4 and by use of scrapers. Also, PMSF and a protease inhibitor cocktail (Roche) were added to the extraction buffer to prevent the breakdown of the proteins. […] Protein contents of the cell extracts were measured by a bicinchoninic acid protein assay kit (Quanti-Pro BCA, Sigma–Aldrich, St. Louis, USA) using bovine serum albumin as the protein standard. […] Proteins were then detected by incubation with specific primary antibodies, rabbit monoclonal anti-p-MET (dilution 1:1000, catalogue number: 3126, Cell Signaling, Danvers, MA), and rabbit monoclonal anti-MET (dilution 1:1000, catalogue number: 4560, Cell Signaling, Danvers, MA) overnight at 4 °C. […] The band intensities were calculated with the software Gene Tools (SyneGene, Cambridge, UK) for Windows.
# [3] = target: T2, ABL (h) (Homo sapiens, UniProt P00519); assay: Radiometric kinase panel assay; assay type: biochemical; settings: Km ATP
# T2 construct: purchased Eurofins Discovery
# T2 sequence (P00519 whole entry): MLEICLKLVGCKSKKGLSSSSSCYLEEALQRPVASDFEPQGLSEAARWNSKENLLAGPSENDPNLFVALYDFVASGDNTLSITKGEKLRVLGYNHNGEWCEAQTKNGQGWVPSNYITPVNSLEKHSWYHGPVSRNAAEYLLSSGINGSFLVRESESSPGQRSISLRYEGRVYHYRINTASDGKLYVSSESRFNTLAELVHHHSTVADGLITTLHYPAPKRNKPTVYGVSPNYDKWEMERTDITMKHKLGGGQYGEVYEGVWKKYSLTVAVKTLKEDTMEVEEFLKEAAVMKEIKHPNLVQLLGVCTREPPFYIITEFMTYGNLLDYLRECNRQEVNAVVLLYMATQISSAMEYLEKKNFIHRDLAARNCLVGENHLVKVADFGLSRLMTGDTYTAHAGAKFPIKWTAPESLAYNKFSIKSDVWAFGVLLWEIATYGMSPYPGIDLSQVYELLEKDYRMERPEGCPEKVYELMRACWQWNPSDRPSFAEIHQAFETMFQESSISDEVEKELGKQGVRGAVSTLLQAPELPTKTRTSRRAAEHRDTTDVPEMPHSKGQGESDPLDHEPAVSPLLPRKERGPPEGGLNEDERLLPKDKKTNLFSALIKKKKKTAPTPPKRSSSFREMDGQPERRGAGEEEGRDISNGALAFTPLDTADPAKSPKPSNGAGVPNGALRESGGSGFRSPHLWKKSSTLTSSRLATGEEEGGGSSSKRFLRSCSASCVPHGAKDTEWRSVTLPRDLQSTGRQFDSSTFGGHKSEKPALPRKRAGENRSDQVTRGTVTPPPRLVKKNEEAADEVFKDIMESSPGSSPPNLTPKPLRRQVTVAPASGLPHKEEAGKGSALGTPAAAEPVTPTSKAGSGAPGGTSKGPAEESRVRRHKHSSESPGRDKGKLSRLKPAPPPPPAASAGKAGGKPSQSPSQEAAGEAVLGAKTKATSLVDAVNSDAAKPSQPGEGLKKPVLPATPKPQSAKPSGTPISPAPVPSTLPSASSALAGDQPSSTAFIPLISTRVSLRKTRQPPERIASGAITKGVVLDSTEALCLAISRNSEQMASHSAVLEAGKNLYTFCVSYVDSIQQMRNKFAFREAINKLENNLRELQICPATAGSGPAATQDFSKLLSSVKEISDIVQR
# [4] = target: T3, ALK (h) (Homo sapiens, UniProt Q9UM73); assay: Radiometric kinase panel assay; assay type: biochemical; settings: Km ATP
# T3 construct: purchased Eurofins Discovery
# [5] = target: T4, AKT1 (h) (Homo sapiens, UniProt P31749); assay: Radiometric kinase panel assay; assay type: biochemical; settings: Km ATP
# T4 construct: purchased Eurofins Discovery
# T4 sequence (P31749 whole entry): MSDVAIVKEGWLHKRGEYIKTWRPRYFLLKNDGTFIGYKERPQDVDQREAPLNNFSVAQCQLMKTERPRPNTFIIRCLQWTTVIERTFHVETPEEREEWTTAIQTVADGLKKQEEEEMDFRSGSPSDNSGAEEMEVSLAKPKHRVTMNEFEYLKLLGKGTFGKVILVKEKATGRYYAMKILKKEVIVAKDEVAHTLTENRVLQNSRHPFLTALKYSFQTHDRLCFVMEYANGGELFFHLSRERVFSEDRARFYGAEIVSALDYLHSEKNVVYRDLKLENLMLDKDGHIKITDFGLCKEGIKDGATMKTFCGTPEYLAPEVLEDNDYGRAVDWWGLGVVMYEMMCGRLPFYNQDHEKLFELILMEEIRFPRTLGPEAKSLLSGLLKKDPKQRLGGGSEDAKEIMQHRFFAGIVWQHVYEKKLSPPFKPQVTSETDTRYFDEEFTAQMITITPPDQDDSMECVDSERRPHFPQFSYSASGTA
# [6] = target: T5, AXL (h) (Homo sapiens, UniProt P30530); assay: Radiometric kinase panel assay; assay type: biochemical; settings: Km ATP
# T5 construct: purchased Eurofins Discovery
# [7] = target: T6, CDK4/cyclinD3 (h) (Homo sapiens, UniProt P11802); assay: Radiometric kinase panel assay; assay type: biochemical; settings: Km ATP
# T6 construct: purchased Eurofins Discovery
# [8] = target: T7, EGFR (h) (Homo sapiens, UniProt P00533); assay: Radiometric kinase panel assay; assay type: biochemical; settings: Km ATP
# T7 construct: purchased Eurofins Discovery
# [9] = target: T8, FLT1 (h) (Homo sapiens, UniProt P17948); assay: Radiometric kinase panel assay; assay type: biochemical; settings: Km ATP
# T8 construct: purchased Eurofins Discovery
# [10] = target: T9, FLT3 (h) (Homo sapiens, UniProt P36888); assay: Radiometric kinase panel assay; assay type: biochemical; settings: Km ATP
# T9 construct: purchased Eurofins Discovery
# [11] = target: T10, MAPK1 (h) (Homo sapiens, UniProt P27361); assay: Radiometric kinase panel assay; assay type: biochemical; settings: Km ATP
# T10 construct: purchased Eurofins Discovery
# [12] = target: T11, MTOR (h) (Homo sapiens, UniProt P42345); assay: Radiometric kinase panel assay; assay type: biochemical; settings: Km ATP
# T11 construct: purchased Eurofins Discovery
# [13] = target: T12, PDGFRA (h) (Homo sapiens, UniProt P16234); assay: Radiometric kinase panel assay and dose-response; assay type: biochemical; settings: for inhibition at 10 µM: radiometric assay, Km ATP
# T12 construct: purchased Eurofins Discovery
# T12 sequence (P16234 24-1089): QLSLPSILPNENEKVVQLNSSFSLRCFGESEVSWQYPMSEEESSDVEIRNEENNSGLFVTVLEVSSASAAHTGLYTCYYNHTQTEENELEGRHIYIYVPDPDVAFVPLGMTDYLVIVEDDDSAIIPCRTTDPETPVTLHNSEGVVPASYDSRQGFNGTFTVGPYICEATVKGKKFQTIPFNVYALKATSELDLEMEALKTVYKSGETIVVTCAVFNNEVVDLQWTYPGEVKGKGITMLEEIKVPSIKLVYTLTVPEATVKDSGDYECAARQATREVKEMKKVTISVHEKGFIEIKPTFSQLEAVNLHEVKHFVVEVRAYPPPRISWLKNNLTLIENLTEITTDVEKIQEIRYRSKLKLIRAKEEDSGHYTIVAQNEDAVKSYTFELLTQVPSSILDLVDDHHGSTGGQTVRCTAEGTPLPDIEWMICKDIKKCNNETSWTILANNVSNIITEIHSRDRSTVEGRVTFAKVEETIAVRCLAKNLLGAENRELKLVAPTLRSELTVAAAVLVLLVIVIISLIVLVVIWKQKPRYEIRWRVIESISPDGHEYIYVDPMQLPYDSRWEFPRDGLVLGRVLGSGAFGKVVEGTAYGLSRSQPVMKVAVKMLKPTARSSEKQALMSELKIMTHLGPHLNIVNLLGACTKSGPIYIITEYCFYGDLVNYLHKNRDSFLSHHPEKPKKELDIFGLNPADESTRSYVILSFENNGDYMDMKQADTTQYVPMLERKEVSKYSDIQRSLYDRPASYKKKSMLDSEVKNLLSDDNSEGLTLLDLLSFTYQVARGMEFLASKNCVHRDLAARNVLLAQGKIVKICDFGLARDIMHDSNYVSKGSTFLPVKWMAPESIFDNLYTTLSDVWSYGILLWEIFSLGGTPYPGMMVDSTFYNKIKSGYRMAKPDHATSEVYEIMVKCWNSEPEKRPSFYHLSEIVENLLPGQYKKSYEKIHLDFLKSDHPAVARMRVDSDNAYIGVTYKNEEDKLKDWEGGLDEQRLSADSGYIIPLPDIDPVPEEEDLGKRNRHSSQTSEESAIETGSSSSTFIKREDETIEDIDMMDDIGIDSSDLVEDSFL
# Method: Moreover, a dose–response analysis was performed at six concentrations to determine the activity of compound 8c against PDGFRA kinase, and IC50 value was estimated by curve fitting. The tests were performed by Eurofins Discovery (https://www.eurofinsdiscovery.com).
# [14] = target: T13, RET (h) (Homo sapiens, UniProt P07949); assay: Radiometric kinase panel assay; assay type: biochemical; settings: Km ATP
# T13 construct: purchased Eurofins Discovery
# [15] = target: T14, TRKA (h) (Homo sapiens, UniProt P04629); assay: Radiometric kinase panel assay; assay type: biochemical; settings: Km ATP
# T14 construct: purchased Eurofins Discovery
# T14 sequence (P04629 33-796): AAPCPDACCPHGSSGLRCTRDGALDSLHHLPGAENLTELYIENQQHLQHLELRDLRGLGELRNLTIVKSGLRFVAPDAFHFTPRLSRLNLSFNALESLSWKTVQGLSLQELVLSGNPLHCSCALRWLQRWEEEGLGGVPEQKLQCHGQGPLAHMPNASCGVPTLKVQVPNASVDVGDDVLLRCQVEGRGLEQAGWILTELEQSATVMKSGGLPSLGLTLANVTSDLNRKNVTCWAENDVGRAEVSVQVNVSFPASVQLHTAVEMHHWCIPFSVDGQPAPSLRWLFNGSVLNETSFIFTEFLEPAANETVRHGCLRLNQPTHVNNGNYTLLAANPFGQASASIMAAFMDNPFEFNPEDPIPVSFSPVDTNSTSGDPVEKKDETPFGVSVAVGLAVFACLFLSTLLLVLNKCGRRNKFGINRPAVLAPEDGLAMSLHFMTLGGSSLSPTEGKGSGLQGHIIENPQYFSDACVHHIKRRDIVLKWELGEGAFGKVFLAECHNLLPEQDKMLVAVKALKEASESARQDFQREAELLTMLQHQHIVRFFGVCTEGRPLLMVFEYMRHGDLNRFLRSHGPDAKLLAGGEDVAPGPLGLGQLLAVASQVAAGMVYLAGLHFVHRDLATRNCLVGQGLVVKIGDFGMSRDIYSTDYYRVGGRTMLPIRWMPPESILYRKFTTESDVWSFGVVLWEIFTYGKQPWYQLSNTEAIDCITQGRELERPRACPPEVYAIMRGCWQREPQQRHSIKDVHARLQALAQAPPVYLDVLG
# [16] = target: T15, AKT2 (h) (Homo sapiens, UniProt P31751); assay: Radiometric kinase panel assay; assay type: biochemical; settings: Km ATP
# T15 construct: purchased Eurofins Discovery
# [17] = target: T16, FMS (h) (Homo sapiens, UniProt P07333); assay: Radiometric kinase panel assay; assay type: biochemical; settings: Km ATP
# T16 construct: purchased Eurofins Discovery
# [18] = target: T17, MAPK2 (m) (Mus musculus, UniProt P63085); assay: Radiometric kinase panel assay; assay type: biochemical; settings: Km ATP
# T17 construct: purchased Eurofins Discovery
# [19] = target: T18, PDGFRB (h) (Homo sapiens, UniProt P09619); assay: Radiometric kinase panel assay; assay type: biochemical; settings: Km ATP
# T18 construct: purchased Eurofins Discovery
# T1 sequence (P08581 25-1390): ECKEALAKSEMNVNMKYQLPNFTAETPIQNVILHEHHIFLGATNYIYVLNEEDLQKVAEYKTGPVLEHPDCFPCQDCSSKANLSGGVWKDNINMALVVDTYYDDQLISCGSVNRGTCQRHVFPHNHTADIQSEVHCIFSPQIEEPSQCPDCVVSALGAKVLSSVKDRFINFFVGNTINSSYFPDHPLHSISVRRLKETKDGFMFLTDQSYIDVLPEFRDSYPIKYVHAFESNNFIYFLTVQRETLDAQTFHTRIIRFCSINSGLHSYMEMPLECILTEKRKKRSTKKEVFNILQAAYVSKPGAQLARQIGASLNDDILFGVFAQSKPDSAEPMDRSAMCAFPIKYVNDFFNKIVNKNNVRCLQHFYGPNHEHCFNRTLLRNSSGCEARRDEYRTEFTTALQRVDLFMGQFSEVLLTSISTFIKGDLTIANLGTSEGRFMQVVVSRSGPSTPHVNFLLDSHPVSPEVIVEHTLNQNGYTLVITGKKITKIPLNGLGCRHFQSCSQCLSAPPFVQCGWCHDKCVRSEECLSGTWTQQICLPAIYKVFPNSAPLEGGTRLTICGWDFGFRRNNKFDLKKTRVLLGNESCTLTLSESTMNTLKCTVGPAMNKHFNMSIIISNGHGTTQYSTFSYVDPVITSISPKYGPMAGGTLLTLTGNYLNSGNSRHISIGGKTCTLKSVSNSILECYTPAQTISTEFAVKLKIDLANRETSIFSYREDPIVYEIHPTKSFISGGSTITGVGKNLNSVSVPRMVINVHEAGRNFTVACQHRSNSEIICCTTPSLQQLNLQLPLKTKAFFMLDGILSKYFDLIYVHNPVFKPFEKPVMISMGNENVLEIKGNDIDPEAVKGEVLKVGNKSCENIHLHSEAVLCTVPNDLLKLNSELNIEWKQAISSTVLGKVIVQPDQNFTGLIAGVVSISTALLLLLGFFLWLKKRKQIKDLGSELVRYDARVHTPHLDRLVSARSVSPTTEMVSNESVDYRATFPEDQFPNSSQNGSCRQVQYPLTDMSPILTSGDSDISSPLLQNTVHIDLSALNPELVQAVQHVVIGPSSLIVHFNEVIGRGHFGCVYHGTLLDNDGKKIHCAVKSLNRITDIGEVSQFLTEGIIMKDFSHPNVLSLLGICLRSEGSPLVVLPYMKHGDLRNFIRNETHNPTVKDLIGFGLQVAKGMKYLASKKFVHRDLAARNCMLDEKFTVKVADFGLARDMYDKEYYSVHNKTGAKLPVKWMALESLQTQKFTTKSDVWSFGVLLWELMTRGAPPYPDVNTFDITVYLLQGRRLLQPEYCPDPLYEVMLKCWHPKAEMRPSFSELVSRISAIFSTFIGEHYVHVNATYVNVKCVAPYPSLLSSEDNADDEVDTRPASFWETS
compound,measurement,setting,value
"Cc1ccc(Cn2cc(COc3ccc(C=NNc4ncnc5ccccc45)cc3)nn2)cc1 [Compound 8c, 2-(4-((1-(4-Methylbenzyl)-1H-1,2,3-triazol-4-yl)methoxy)benzylidene)-1-(quinazolin-4-yl)hydrazine]",IC50,"[1]; HTRF assay, read-out: MET kinase inhibition IC50",36 ± 9.5 µM
same,Effect on MET phosphorylation,[2],significant suppression of MET phosphorylation
same,inhibition at 10 µM,[3],8%
same,inhibition at 10 µM,[4],3%
same,inhibition at 10 µM,[5],15%
same,inhibition at 10 µM,[6],12%
same,inhibition at 10 µM,[7],2%
same,inhibition at 10 µM,[8],8%
same,inhibition at 10 µM,[9],2%
same,inhibition at 10 µM,[10],8%
same,inhibition at 10 µM,[11],5%
same,inhibition at 10 µM,[12],3%
same,inhibition at 10 µM,[13],58%
same,IC50,"[13]; dose-response at six concentrations, curve fitting, read-out: PDGFRA kinase inhibition IC50",7.1 µM
same,inhibition at 10 µM,[14],10%
same,inhibition at 10 µM,[15],13%
"CC(C)(C)c1ccc(Cn2cc(COc3ccc(C=NNc4ncnc5ccccc45)cc3)nn2)cc1 [Compound 8h, 2-(4-((1-(4-Tert-butylbenzyl)-1H-1,2,3-triazol-4-yl)methoxy)benzylidene)-1-(quinazolin-4-yl)hydrazine]",inhibition at 10 µM,"[1]; at 10 μM, mean ± S.E.M., read-out: Inhibitory effect against MET kinase",22 ± 7.4%
same,inhibition at 25 µM,"[1]; at 25 μM, mean ± S.E.M., read-out: Inhibitory effect against MET kinase",25.7 ± 4.7%
same,inhibition at 50 µM,"[1]; at 50 μM, mean ± S.E.M., read-out: Inhibitory effect against MET kinase",32.9 ± 2.2%
same,inhibition at 10 µM,[3],17%
same,inhibition at 10 µM,[4],14%
same,inhibition at 10 µM,[5],26%
same,inhibition at 10 µM,[16],18%
same,inhibition at 10 µM,[10],18%
same,inhibition at 10 µM,[17],0%
same,inhibition at 10 µM,[18],7%
same,inhibition at 10 µM,[13],46%
same,inhibition at 10 µM,[19],7%
same,inhibition at 10 µM,[15],28%
same,melting point,,205.4 °C

# Source: paper PMC10482942, “Novel quinazoline-1,2,3-triazole hybrids with anticancer and MET kinase targeting properties” (Scientific Reports, 2023)
